# Measurements reported in article PMC9409043, “Serotonin 5-HT6 Receptor Ligands and Butyrylcholinesterase Inhibitors Displaying Antioxidant Activity—Design, Synthesis and Biological Evaluation of Multifunctional Agents against Alzheimer’s Disease” (International Journal of Molecular Sciences, 2022).
# Experiments:
# [1] = Metabolic stability in human liver microsomes; type: in vitro ADME
# Method: Metabolic stability. […] For detailed results, including UPLC chromatograms and MS spectra, see the Supporting information (Figures S1–S16).
# The metabolic stability was evaluated by incubation of compounds with human liver microsomes (Sigma-Aldrich, St. Louis, MO, USA) in 10 mM Tris–HCl buffer (pH 7.4) at 37 °C for 120 min in the presence of NADPH Regeneration System (Promega, Madison, WI, USA). The percentage of the remaining substrate and the most probable metabolic pathways were estimated by UPLC-MS analyses of the reaction mixtures.
# [2] = system: HepG2 (human hepatocellular carcinoma) cells; experiment: Hepatotoxicity, MTS cell viability test; type: cell-based; conditions: 72 h
# Method: Hepatotoxicity. To further investigate the safety of the compounds, we determined their hepatotoxicity. We used the MTS test that determines cell viability to assess the effect of compounds 14, 16 and 19 on HepG2 (human hepatocellular carcinoma) cells. The compounds were tested at 1, 10, 50 and 100 μM, and cytostatic drug doxorubicin (DX) at 1 μM was used as a reference compound. […]. The HepG2 (ATCC® HB-8065™) cell line was cultivated according to the procedure provided by ATCC. The tested compounds were incubated with cells for 72 h in the following concentrations: 1, 10, 50 and 100 μM. To evaluate the cells’ viability, CellTiter 96® AQueous Non-Radioactive Cell Proliferation Assay (MTS, Promega®, Madison, WI, USA) was performed. The antiproliferative drug doxorubicin was used as a positive control at the concentration of 1 µM. For determination of the IC50 value for compound 14, additional study was performed. The tested compound was incubated with the HepG2 cells for 72 h in the following nine concentrations: 0.001, 0.01, 0.1, 1, 5, 10, 25, 50 and 100 μM. The cells’ viability was estimated by MTS test. IC50 was calculated by Graph Pad Prism 8.0.1 software.
# CYP2D6 = target: T1, CYP2D6 (Homo sapiens, UniProt P10635); experiment: CYP P450-Glo luminescence assay, CYP2D6; type: in vitro ADME; conditions: human, CYP2D6 enzyme in the luminescent P450-Glo assay (Promega); 0.1 µM
# T1 construct: purchased Promega, Madison, WI, USA
# T1 sequence (P10635 whole entry): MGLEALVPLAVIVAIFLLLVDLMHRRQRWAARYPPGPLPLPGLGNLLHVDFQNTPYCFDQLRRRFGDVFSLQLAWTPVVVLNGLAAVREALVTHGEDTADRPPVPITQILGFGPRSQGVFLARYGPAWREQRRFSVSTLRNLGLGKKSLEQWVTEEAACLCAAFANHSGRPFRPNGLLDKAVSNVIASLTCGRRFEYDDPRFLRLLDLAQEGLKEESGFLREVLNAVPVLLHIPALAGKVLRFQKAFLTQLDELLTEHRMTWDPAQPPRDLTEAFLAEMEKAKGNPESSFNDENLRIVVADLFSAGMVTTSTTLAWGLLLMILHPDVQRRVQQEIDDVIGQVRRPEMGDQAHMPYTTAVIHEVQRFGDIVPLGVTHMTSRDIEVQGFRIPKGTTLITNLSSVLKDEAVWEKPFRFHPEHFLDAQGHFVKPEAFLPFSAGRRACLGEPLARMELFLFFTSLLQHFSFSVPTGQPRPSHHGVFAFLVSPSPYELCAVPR
# From the text: Influence on CYP3A4 and CYP2D6 activity. Possible drug–drug interactions (DDIs) are an important issue for elderly patients, who are usually on multiple medications. They may result, among other things, from the interactions (inhibition or activation) of the cytochrome P450 isoenzymes, especially CYP3A4 and CYP2D6, which play the most significant role in drugs’ biotransformation. Therefore, to predict the potential influence of the studied compounds (14, 16 and 19) on the metabolism of other drugs, we used the CYP450 inhibition luminescence assay (Promega). […]. […] […]. […] […].
# The influence on CYP 3A4 and 2D6 activity was estimated by respective luminescent CYP P450-Glo™ assay (Promega®, Madison, WI, USA). The compounds were tested in the concentration range of 0.1–25 µM. The results were compared to the respective reference CYP inhibitors: ketoconazole and quinidine.
# [3] = Metabolic stability in mouse liver microsomes; type: in vitro ADME; conditions: 2 h, pH 7.4
# [4] = Metal-chelating properties, spectrophotometric; conditions: 50 µM ligand and Fe^2+, 250–400 nm
# From the text: Metal-chelating properties. The homeostasis of metal ions in the brain is one of the important factors that determine its proper functioning. Disturbed levels of metal ions can lead to overproduction and aggregation of amyloid beta tau proteins and an increase in oxygen radicals production, leading to a degeneration of neurons observed in AD [55]. Additionally, it was observed that iron accumulation in microglia triggers a cascade of events leading to the production of a more sustained inflammatory response with increased reactive oxygen species (ROS) production and increased glycolysis. Adjusting the balance of metal ions by supplementing or chelating may be beneficial in alleviating AD pathology. Thus, we tested the metal-chelating properties of compounds 12–19 against 10 metal ions, recognised as potentially involved in AD. The formation of ligand–ion (Al^3+, Ca^2+, Co^2+, Cu^2+, Fe^2+, Fe^3+, Mg^2+, Ni^2+, Pb^2+ or Zn^2+) complexes was measured spectrophotometrically (250–400 nm with 4 nm interval) at 50 µM concentrations of both, according to the protocol reported previously. Metal-chelating ability was calculated as a shift of absorbance between the absorbance of the ligand–ion mixture and the sum of the absorbance of the ligand and ion separately. […]
Compound,main metabolic pathway [1],"HLMs % Left ([1]; human, 2 h, pH 7.4) [%]","IC50 ([2]; Homo sapiens, HepG2, MTS test) [nM]",fold HepG2 IC50 over Ki for 5-HT6R and IC50 for hBuChE (safety margin) ([2]; human),inhibition at 0.1 µM (CYP2D6) [%],MLMs % Left [3] [%],Fe^2+ chelating properties (shift of absorbance) [4]
"O=S(=O)(c1ccccc1)n1ccc2c(OCCNCCCC3CCN(Cc4ccccc4)CC3)cccc21 [Compound 14, 3-(1-Benzylpiperidin-4-yl)-N-(2-((1-(phenylsulfonyl)-1H-indol-4-yl)oxy)ethyl)propan-1-amine]",oxidative deamination,84.69,2160,at least 98 fold,~20,75.54,
"O=S(=O)(c1ccccc1)N1CCc2c(OCCNCC3CCN(Cc4ccccc4)CC3)cccc21 [Compound 15, N-((1-Benzylpiperidin-4-yl)methyl)-2-((1-(phenylsulfonyl)indolin-4-yl)oxy)ethan-1-amine]",,,,,,,Fe^2+ ions chelators
"O=c1[nH]c2c(OCCNCCC3CCN(Cc4ccccc4)CC3)cccc2n1Cc1ccccc1 [Compound 18, 1-Benzyl-4-(2-((2-(1-benzylpiperidin-4-yl)ethyl)amino)ethoxy)-1,3-dihydro-2H-benzo[d]imidazol-2-one]",,,,,,,Fe^2+ ions chelators
